Entries after “also recorded” stand apart in the source; their conditions may differ.

Experiment [1] deals with T1, RXRα ligand-binding domain (Homo sapiens, UniProt P19793).
T1 construct: made in house; host or cells: E. coli BL21 (pET vector, Novagen)
T1 sequence (P19793 224-462): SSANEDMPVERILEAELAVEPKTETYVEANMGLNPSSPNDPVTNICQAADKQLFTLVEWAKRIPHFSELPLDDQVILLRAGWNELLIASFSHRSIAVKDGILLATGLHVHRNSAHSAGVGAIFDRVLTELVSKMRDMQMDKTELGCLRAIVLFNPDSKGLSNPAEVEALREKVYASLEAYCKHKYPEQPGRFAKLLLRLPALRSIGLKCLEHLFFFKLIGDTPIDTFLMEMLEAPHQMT
The experiment in a line: competition binding assay with [3H]9-cis-RA and RXRα ligand-binding domain. As for the experimental part:
FIG. 8 is a dose response analysis illustrating that 15d-PGJ2 binds RXRα with high affinity conducted with 15d-PGJ2 in the competition binding assay. […] After separation of bound from free radioactivity by elution through Sephadex G-25 desalting columns. Bound radioactivity eluted was quantitated by liquid scientillation counting.
Therefore, Inventor investigated the possibility that 15d-PGJ2 bound directly to RXRα […] A dose response analysis (FIG. 8) was conducted with 15d-PGJ2 in the competition binding assay.
LBD expressed in E. coli. […] The reactions were then eluted through a Sephadex G-25 column to separate the bound label from free label and the RXRα LBD-bound label was quantitated by liquid scintillation counting.

Experiment [2] addresses T2, TR3/RXRα heterodimer (Homo sapiens, UniProt P19793).
T2 construct: made in house; host or cells: in vitro translation
The experiment in a line: gel shift assay (EMSA) of TR3/RXRα heterodimer binding to βRARE. Format: biochemical. For orientation: Mobility shift assays separate free from complexed probe on a gel.
Description: In vitro translated RXRα and TR3 were incubated with 15d-PGJ2 (10^-5 M) for 15 min in the absence or presence of anti-TR3 or anti-RXRα antibody. Following a further incubation with ^32P-radiolabelled βRARE, the reactions were analyzed by EMSA.
To study whether 15d-PGJ2 acted on the TR3/RXRα heterodimer to inhibit the heterodimer activity, Inventor investigated whether 15d-PGJ2 affected binding of the TR3/RXRα heterodimer to the beta.RARE by gel shift assay.
RXRα and TR3 proteins are incubated in the absence or presence of a test compound. Following incubation, the mixture is incubated with ^23P-labeled βretinoic acid response element (βRARE), and the binding of the RXRα/TR3 heterodimer is analyzed by the gel-shift assay. […] The enhancement of the heterodimer binding by a compound will indicate that the compound retains the RXRα/TR3 heterodimer in the nucleus and likely induces transcriptional activity of the heterodimer through its induction of RXRα/TR3 heterodimerization at their LBD dimerization interfaces.

Experiment [3] concerns the target T3, RXRα/IKK interaction (Homo sapiens, UniProt P19793).
T3 construct: expressed in transfected cells; host or cells: HEK293T, pcDNA3 expression vectors
The experiment in a line: co-immunoprecipitation assay of RXRα with IKK. Format: cell-based. The following applies: HEK293T cells, HA-IKKγ and Flag-RXRα; BI419 10^-6 M, 15d-PGJ2 5 μM, sulindac sulfide 75 μM, 6 hr. From the text: IKK is composed of three subunits: IKKα and IKKβ, the catalytic subunits, and IKKγ, a regulatory subunit. IKK activation is required for NF-kB activation through its phosphorylation and degradation of IkB in response to proinflammatory stimuli. In addition, IKK also regulates cellular processes in a NF-kB-independent manner. We examined whether sulindac sulfide-induced cytoplasmic RXRα could interact with IKK. The indicated expression vector (pcDNA3 from Invitrogen, Corp) was transfected into HEK293T cells alone or together. After transfection, cells were treated with sulindac sulfide (75.micro.M) for 6 hr, and the interaction of RXRα and IKKβ was analyzed by co-immunoprecipitation assay. […] (FIG. 17a). The interaction was also illustrated by their cytoplasmic co-localization in cells treated with sulindac sulfide. (FIG. 17b). […] In this example, H460 cells were treated with or without sulindac sulfide (75.micro.M) for 6 hr, and cells were stained for RXRα and IKKβ (FIG. 17c). […] HA-IKKγ and Flag-RXRα expression vectors were transfected into HEK293T cells alone or together. After transfection, cells were treated with a new retinoid (BI419 (10^-6 M), 15d-PGJ2 (5.micro.M), or sulindac sulfide (75.micro.M) for 6 hr. The interaction of RXRα and IKKγ was studied by co-immunoprecipitation assay.

The subject of experiment [4] is RARβ expression. The experiment in a line: RARβ protein expression by Western analysis in cancer cells. Format: cell-based.
Description: The indicated cancer cells were treated for 24 h with or without trans-RA (10^-6 M), or 15d-PGJ2 (5.micro.M) or their combination. RARβ protein expression was determined by Western analysis.
The effect of sulindac sulfide on RXR transactivation was investigated for its effect of RARβ induction by all-trans-retinoic acid (tRA), which activates the RA response element (βRARE) in the RARβ promoter through an RAR/RXR heterodimer. […] The βRARE could be also activated by an RXR/PPAR heterodimer. […] Cells were treated for 24 hr with or without with trans-RA (10^-6 M), or SR11237 (10^-6 M), ciglitazone (10.micro.M), sulindac sulfide (100.micro.M) or the indicated combinations. RARβ protein expression was determined by Western analysis.
Experiment [5] deals with TR3. The experiment in a line: subcellular localization of TR3 and RXRα/TR3 heterodimer by confocal microscopy. Format: cell-based. The method, then: FIG. 10 is a series of confocal microscope images of immunostained PC12 cells illustrating that binding of 15d-PGJ2 to RXRα induces translocation of RXRα homodimer/monomer or TR3/RXRα heterodimer from the nucleus to the cytoplasm. Expression vectors for Flag-RXRα and GFP-TR3 were transfected into PC12 cells alone or together. Cells were then treated with 15d-PGJ2 (5.micro.M) for 3 hr, then immunostained with anti-Flag antibody to detect RXRα Flag-RXRα and GFP-TR3 were visualized by confocal microscopy, and their images merged.
In the absence of TPA, both TR3 and RXRα reside mainly in the nucleus. […] (FIG. 2).
(§1) Because RXR heterodimerizes with TR3, Inventor examined the effect of 15d-PGJ2 on TR3 subcellular localization in PC12 phaeochromocytoma cells.
Either TR3 alone, RXRα alone or TR3 and RXRα was transfected into HEK293T cells. Cells were then treated with sulindac sulfide (75.micro.M) for 6 hr. RXR.alpha and TR3 localization was determined by immunostaining, and cells were also stained by DAPI. […] Thus, the effect of sulindac sulfide on the cytoplasmic localization of TR3 depends on RXRα expression, probably due to their heterodimerization. Thus, sulindac sulfide induces nuclear export of RXRα and RXRα/TR3 heterodimer. (FIG. 14b).
The effect of sulindac sulfide on mitochondrial targeting of RXRα and TR3 was determined by treating H460 lung cancer cells with 75 micro.M sulindac sulfide for 6 hours and visualization of the cellular localization of these proteins by immunostaining. A two stage detection system was used having either anti-RXR or anti TR3 as a first stage (Santa Cruz Biotechnology and Abgent, respectively). In the absence of treatment, both RXRα and TR3 were found mainly in the nucleus.

In experiment [6] the target is T4, RXRα (Homo sapiens, UniProt P19793).
T4 sequence (P19793 1-462): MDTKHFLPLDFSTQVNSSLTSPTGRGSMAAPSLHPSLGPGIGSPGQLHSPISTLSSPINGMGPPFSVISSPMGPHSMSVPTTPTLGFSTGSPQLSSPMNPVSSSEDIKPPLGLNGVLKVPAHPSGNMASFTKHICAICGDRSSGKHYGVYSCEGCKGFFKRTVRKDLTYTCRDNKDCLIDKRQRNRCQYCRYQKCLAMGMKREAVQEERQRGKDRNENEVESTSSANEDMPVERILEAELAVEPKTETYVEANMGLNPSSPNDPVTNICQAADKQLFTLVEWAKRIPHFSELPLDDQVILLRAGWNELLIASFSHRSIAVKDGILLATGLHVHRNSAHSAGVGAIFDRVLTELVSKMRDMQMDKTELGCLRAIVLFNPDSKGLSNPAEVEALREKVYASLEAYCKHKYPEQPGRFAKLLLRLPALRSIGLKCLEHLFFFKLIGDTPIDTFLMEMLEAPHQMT
The experiment in a line: subcellular localization of RXRα by immunostaining / confocal microscopy. Format: cell-based. To be noted: for GFP-RXRα association with mitochondria (overlay with Mito-RFP) / GFP-RXRα localization: COS-7 cells, 10^-4 M, 4 hours; for nuclear export of GFP fusion with amino acids 348-398 of RXRα: HEK293T cells. The method, then: Expression vector for Flag-RXRα was transfected into the indicated cell line. Cells were then treated with 15d-PGJ2 (5.micro.M) for 3 hr, then immunostained with anti-Flag antibody to detect RXRα Flag-RXRα was visualized by confocal microscopy.
Expression vectors for Flag-RXRα and GFP-TR3 were transfected into PC12 cells alone or together. Cells were then treated with 15d-PGJ2 (5.micro.M) for 3 hr, then immunostained with anti-Flag antibody to detect RXRα Flag-RXRα and GFP-TR3 were visualized by confocal microscopy, and their images merged.
Cos7 cells were transfected with GFP-RXRα and Mito-REP, and treated with or without 10^-4 M indomethacin or diclofenac for 4 hours. The distribution of GFP-RXRα and Mito-REP was visualized by confocal microscopy.
For example, cells such as LNCaP prostate cancer cells are induced to apoptosis using agents such as the phorbol ester, TPA (12-0-tetradecanolphorbol 13-acetate, Cell Signaling Technology Cat. No.: 9905).
For example, heat shock protein 60 (Hsp60) is a mitochondrial specific protein. […] The treated cells are then incubated with a conjugated secondary antibody and visualized using confocal microscopy. In this example, Cy-3 or FITC conjugated secondary antibodies were used for visualizing the sub-cellular localization of RXRα or Hsp60, respectively.
A GFP-RXRα expression vector was transfected into COS-7 cells and GFP-RXRα was expressed.
A fusion protein created by combining GFP and amino acids 348-398 of RXRα, is transfected into HEK293T cells.
To determine the role of 15d-PGJ2 binding on the new RXR pathway, a confocal microscopy analysis was performed to determine subcellular localization of RXRα in the presence or absence of 15d-PGJ2.
as §1
To determine the mechanism of RXRα mediated apoptosis in the presence of sulindac sulfide, Inventors examined the effect of sulindac sulfide on subcellular localization of RXRα

The subject of experiment [7] is CV-1, MGC80-3, HEK293T and HCT116 cells. Nature of the experiment: apoptosis determined by DAPI staining. Format: cell-based. To be noted: for effect on sulindac sulfide-induced apoptosis: RXRα ligands given with sulindac sulfide. As for the experimental part: To determine the involvement of RXRα in sulindac sulfide-induced apoptosis of cancer cells, its effect on apoptosis of CV-1 cells (available from American Type Cell Culture, Manassas, Va., as accession number CCL-70) in the absence or presence of RXRα transfection was evaluated. FIG. 13a. RXR was cloned into a pGFP.C2 vector (GenBank Accession #: U19281) according to the procedure of Li et al., Science 289, 1159-1164 (2000). CV-1 cells were transfected with or without RXRα prior to treatment with sulindac sulfide (75.micro.M) for 24 hr. […] Louis, Mo., as catalogue number D9542), and the presence of nuclear fragmentation and/or chromatin condensation is an indicator of apoptosis. […] The requirement of RXRαwas also examined using RXRα siRNA SEQ ID No.: 12 approach. MGC80-3 cells, HEK293T (ATCC, accession number CCL-1573) and HCT116 (ATCC, accession number CCL-247) cell lines were transfected with RXRα siRNA or control siRNA using oligofectamine (from Invitrogen, Corp). Cell samples from each cell line were lysed and the cell extracts were prepared by immunoblotting to determine RXRα expression. Cells transfected with RXR.alpha siRNA or control siRNA were treated with sulindac sulfide (75.micro.M) for 24 hr, and apoptosis was determined by DAPI staining.

T2 sequence (P22736 whole entry partner, one chain of several): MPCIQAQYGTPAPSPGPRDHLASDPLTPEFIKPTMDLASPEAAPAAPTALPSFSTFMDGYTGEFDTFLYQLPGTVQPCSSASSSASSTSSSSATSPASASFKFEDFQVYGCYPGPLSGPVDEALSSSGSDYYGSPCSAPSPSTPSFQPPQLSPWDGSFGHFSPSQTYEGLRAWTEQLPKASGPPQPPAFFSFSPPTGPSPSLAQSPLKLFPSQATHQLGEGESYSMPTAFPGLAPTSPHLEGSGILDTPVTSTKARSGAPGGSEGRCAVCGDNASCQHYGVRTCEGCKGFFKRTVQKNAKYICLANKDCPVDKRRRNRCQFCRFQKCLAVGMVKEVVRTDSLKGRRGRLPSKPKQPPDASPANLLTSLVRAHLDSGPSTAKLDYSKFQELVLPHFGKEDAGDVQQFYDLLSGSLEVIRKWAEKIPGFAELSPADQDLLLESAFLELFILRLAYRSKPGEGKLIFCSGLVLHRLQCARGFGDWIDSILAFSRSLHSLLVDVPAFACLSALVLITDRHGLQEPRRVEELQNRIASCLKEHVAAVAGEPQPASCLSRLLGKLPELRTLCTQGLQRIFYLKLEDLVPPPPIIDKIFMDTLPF
T3 sequence (Q9Y6K9 whole entry partner, one chain of several): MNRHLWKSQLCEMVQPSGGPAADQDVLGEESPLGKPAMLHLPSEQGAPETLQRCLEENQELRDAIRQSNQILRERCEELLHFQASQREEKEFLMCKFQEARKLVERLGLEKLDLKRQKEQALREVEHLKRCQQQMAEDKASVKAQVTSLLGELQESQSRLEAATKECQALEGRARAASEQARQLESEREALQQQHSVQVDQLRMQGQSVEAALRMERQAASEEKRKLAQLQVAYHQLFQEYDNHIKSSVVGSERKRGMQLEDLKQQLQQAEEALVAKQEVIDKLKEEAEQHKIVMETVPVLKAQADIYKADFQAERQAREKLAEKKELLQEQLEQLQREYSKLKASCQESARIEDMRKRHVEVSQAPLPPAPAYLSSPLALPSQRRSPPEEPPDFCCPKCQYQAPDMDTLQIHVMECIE
T3 sequence (O14920 whole entry partner, one chain of several): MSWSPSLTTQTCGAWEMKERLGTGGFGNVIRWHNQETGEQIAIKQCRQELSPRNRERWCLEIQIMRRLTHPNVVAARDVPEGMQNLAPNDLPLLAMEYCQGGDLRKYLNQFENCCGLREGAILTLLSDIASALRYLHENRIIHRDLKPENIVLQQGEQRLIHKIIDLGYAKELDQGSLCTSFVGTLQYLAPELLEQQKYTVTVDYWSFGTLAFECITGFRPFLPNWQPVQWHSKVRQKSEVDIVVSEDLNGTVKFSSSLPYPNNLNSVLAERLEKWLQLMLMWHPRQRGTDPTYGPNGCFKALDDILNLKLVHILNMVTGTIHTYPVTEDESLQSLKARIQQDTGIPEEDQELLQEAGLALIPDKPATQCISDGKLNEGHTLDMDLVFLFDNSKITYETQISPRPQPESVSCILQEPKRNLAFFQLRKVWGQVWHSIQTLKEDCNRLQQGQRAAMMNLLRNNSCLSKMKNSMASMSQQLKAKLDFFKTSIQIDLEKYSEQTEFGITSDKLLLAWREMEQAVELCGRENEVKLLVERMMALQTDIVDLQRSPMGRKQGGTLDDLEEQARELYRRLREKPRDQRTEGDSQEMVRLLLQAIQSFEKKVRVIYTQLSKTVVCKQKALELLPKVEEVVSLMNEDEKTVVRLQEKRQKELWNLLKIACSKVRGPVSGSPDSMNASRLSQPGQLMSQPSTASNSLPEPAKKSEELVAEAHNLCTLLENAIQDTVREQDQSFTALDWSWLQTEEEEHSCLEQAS

Usually Ki stands for a measure of affinity in units of concentration, obtained from inhibition or displacement. Regarding `CCCCC/C=C/C=C1/C(=O)C=C[C@@H]1C/C=C\CCCC(=O)O` [15d-PGJ2, 15-Deoxy-.delta^12,14-prostaglandin J2], in experiment [1] (read-out: Ki, displacement of [3H]9-cis-RA binding to the RXR ligand-binding domain, 10 nM [3H]9-cis-RA, bacterially purified RXRα LBD), the Ki worked out at 1.8 µM. In experiment [2] (10^-5 M, 15 min, in vitro translated RXRα and TR3, EMSA), the “binding of TR3/RXRα heterodimer to βRARE” value was “completely abolished”. In experiment [2] (stated for positive/negative control, no concentration), the “binding of RXRα/TR3 heterodimer to DNA (βRARE), as control in gel-shift screening” value is “abolishes the heterodimer binding”. Further, the “interaction of RXRα with IKKγ” value in experiment [3] is on record as “further promoted”. The “induction of RARβ expression by trans-RA” value in experiment [4] (Calu-6 lung and ZR75-1 breast cancer cells, 15d-PGJ2 5 μM, trans-RA 10^-6 M, 24 h) is given as “potently inhibited”. The “RARβ expression in combination with RXR ligands” value in experiment [4] (used together with RXR ligands) is reported as “failed to induce”. In experiment [5] (PC12 cells, 5 μM, 3 hr), the “GFP-TR3 localization, cotransfected with Flag-RXRα” value was “found in the cytoplasm” and the “GFP-TR3 migration to the cytoplasm, TR3 transfected alone” value is on record as “did not”. Further, in experiment [6] (H460 lung cancer or SY5Y neuroblastoma cells, 5 μM, 3 hr), the “transfected Flag-RXRα localization” value is reported as “significant amount of RXRα was found in the cytoplasm”. Also, the Flag-RXRα localization result in experiment [6] (PC12 cells, 5 μM, 3 hr) is “migrated from the nucleus to the cytoplasm”. For the same molecule, in experiment [6] (no conditions given), the RXRα nuclear export entry is “induce RXRα nuclear export”.
In the case of `O=C(O)Cc1ccccc1Nc1c(Cl)cccc1Cl` [diclofenac], in experiment [6], the “GFP-RXRα association with mitochondria (overlay with Mito-RFP)” value is reported as “associated with mitochondria” and the GFP-RXRα localization entry is reported as “capable of inducing the migration; also recorded: found in the cytoplasm”.
Regarding `CC1=C(/C=C/C(C)=C\C=C\C(C)=C\C(=O)O)C(C)(C)CCC1` [9-cis-RA], the “effect on sulindac sulfide-induced apoptosis” value in experiment [7] is “inhibitory effect”.
Consider `CCC(=C/[C@H](C)C/C=C/C(C)=C/[C@@H](C)C(=O)[C@@H](C)[C@H](O)[C@@H](C)C/C(C)=C/C(=O)O)/C=C/[C@@H]1OC(=O)C=C[C@@H]1C` [leptomycin-B], for which the “nuclear export of GFP fusion with amino acids 348-398 of RXRα” value in experiment [6] is listed as “inhibited”.
`COc1ccc2c(c1)c(CC(=O)O)c(C)n2C(=O)c1ccc(Cl)cc1` [indomethacin]: in experiment [6], the “GFP-RXRα association with mitochondria (overlay with Mito-RFP)” value was “associated with mitochondria” and the GFP-RXRα localization result is recorded as “capable of inducing the migration; also recorded: found in the cytoplasm”.
With `CCCCCCCCCCCCCC(=O)O[C@@H]1[C@@H](C)[C@@]2(O)[C@@H](C=C(CO)C[C@]3(O)C(=O)C(C)=C[C@@H]23)[C@H]2C(C)(C)[C@]12OC(C)=O` [TPA, 12-0-tetradecanolphorbol 13-acetate], the “TR3 and RXRα localization” value in experiment [5] (LNCaP cells treated with TPA) is “co-localize to the cytoplasm”. In addition, the “nuclear export of GFP fusion with amino acids 348-398 of RXRα” value in experiment [6] is listed as “causes the fusion protein to export from the nucleus”. In experiment [6] (LNCaP cells treated with TPA), the “RXRα association with mitochondria (overlay with Hsp60)” value is listed as “associates with mitochondria”. The RXRα localization result in experiment [6] (LNCaP prostate cancer cells, endogenous RXRα, TPA treatment) is “found in the cytoplasm”.
The term IC50 denotes the concentration that gives 50% inhibition. With `CC1=C(CC(=O)O)c2cc(F)ccc2/C1=C\c1ccc([S+](C)[O-])cc1` (stereo not drawn) [sulindac], in experiment [7] (CV-1 cells, 75 μM, 24 hr, DAPI staining), the “apoptosis, cells without RXRα transfection” value is on record as “little inducing effect”. In addition, the IC50 in experiment [1] was about 100 µM.
With `CC1(C)CCC(C)(C)c2cc(C3(c4ccc(C(=O)O)cc4)OCCO3)ccc21` [SR11237], in experiment [7], the “effect on sulindac sulfide-induced apoptosis” value was “inhibitory effect”.

For the origin of these results see patent US8105798B2, “Cytoplasmic activity of retinoid X receptor and its regulation by ligands and dimerization” (The Burnham Institute, priority 2003, dated 2012).
